Assay results as given in ChEMBL document CHEMBL1201862, “PubChem BioAssay data set” (2004).
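96-well plates; 48 h exposure; 5 concentrations. Endpoints by linear interpolation between flanking doses. Not reached: highest tested concentration assigned. GI50 marks 50% less growth.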 Calls of active or inactive are those of the source. Rule as the data show it: active = GI50 up to about 1.1 µM and inactive = higher.

Columns and labels:
Assay in all cases: NCI anticancer screen, dose series, 48 h
[1] = test system: M14
[2] = test system: HOP-62
[3] = test system: 786-0
[4] = test system: U-251
[5] = test system: COLO 205
[6] = test system: LOX IMVI
[7] = test system: OVCAR-3
[8] = test system: NCI-H23
[9] = test system: SF-295
[10] = test system: HCT-15
[11] = test system: SNB-19
[12] = test system: DU-145
[13] = test system: HL-60
[14] = test system: K562
[15] = test system: UACC-62
[16] = test system: SK-OV-3
[17] = test system: CCRF-CEM
[18] = test system: HOP-92
[19] = test system: OVCAR-5
[20] = test system: MDA-N

Structure (SMILES)	GI50 [1]	GI50 [2]	GI50 [3]	GI50 [4]	GI50 [5]	GI50 [6]	GI50 [7]	GI50 [8]	GI50 [9]	GI50 [10] [µM]	GI50 [11]	GI50 [12]	GI50 [13]	GI50 [14]	GI50 [15]	GI50 [16]	GI50 [17]	GI50 [18]	GI50 [19]	GI50 [20]
c1cc(NC2=NCCO2)c2c(c1)OCO2	> 100 µM (inactive)	> 100 µM (inactive)	> 100 µM (inactive)	> 100 µM (inactive)	> 100 µM (inactive)	> 100 µM (inactive)	> 100 µM (inactive)	> 100 µM (inactive)	> 100 µM (inactive)	> 100	> 100 µM (inactive)	> 100 µM (inactive)	> 100 µM (inactive)	> 100 µM (inactive)	> 100 µM (inactive)	> 100 µM (inactive)	> 100 µM (inactive)	> 100 µM (inactive)	> 100 µM (inactive)	> 100 µM (inactive)
CCOC(=O)c1ccc(/N=C2\Sc3nc4ccccc4n3\C2=N\c2ccc(C(=O)OCC)cc2)cc1	16 µM (inactive)	21.5 µM (inactive)	11.8 µM (inactive)	–	38.5 µM (inactive)	14.2 µM (inactive)	12.9 µM (inactive)	22.6 µM (inactive)	16.2 µM (inactive)	51.4	12.1 µM (inactive)	28.9 µM (inactive)	> 100 µM (inactive)	–	16.1 µM (inactive)	40.8 µM (inactive)	> 100 µM (inactive)	12.8 µM (inactive)	60 µM (inactive)	18.5 µM (inactive)
CC(NC(=O)CNP(=O)(c1ccccc1)c1ccccc1)C(=O)NC(Cc1ccccc1)C(=O)OCc1ccccc1 (configuration not stated)	49.7 µM (inactive)	> 100 µM (inactive)	22.2 µM (inactive)	23.4 µM (inactive)	> 10 µM (inactive)	26.7 µM (inactive)	43 µM (inactive)	37.8 µM (inactive)	19 µM (inactive)	> 100	51.2 µM (inactive)	> 100 µM (inactive)	28.6 µM (inactive)	> 10 µM (inactive)	36.3 µM (inactive)	21 µM (inactive)	> 10 µM (inactive)	> 100 µM (inactive)	> 100 µM (inactive)	43.3 µM (inactive)
O=[N+]([O-])/C=C\c1c[nH]c2ccc(OCc3ccccc3)cc12	2.18 µM (inactive)	12.9 µM (inactive)	1.93 µM (inactive)	5.85 µM (inactive)	3.85 µM (inactive)	1.86 µM (inactive)	10.4 µM (inactive)	3.4 µM (inactive)	10.6 µM (inactive)	–	4.89 µM (inactive)	7.46 µM (inactive)	2.62 µM (inactive)	2.55 µM (inactive)	2.9 µM (inactive)	17.5 µM (inactive)	4.26 µM (inactive)	3.21 µM (inactive)	11.1 µM (inactive)	2.23 µM (inactive)
CCOC(=O)c1nc2ccccc2nc1Oc1ccc(C#N)cc1	> 100 µM (inactive)	> 100 µM (inactive)	> 100 µM (inactive)	> 100 µM (inactive)	> 100 µM (inactive)	> 100 µM (inactive)	> 100 µM (inactive)	–	> 100 µM (inactive)	> 100	> 100 µM (inactive)	> 100 µM (inactive)	> 100 µM (inactive)	> 100 µM (inactive)	> 100 µM (inactive)	> 100 µM (inactive)	> 100 µM (inactive)	96.6 µM (inactive)	> 100 µM (inactive)	> 100 µM (inactive)
COC(=O)Nc1nc2ccccc2[nH]1 [CARBENDAZIM]	4.69 µM (inactive)	11.1 µM (inactive)	9.53 µM (inactive)	4.86 µM (inactive)	5.05 µM (inactive)	8.73 µM (inactive)	4 µM (inactive)	14.2 µM (inactive)	4.72 µM (inactive)	3.37	10.1 µM (inactive)	5.18 µM (inactive)	4.26 µM (inactive)	–	4 µM (inactive)	3.44 µM (inactive)	21.2 µM (inactive)	> 100 µM (inactive)	49.4 µM (inactive)	2.98 µM (inactive)
CCc1cc2c(c3c1CCCC3=O)CC1(Cc3ccc(C(=O)OC)cc3C1)C2 (configuration not stated)	94.8 µM (inactive)	> 100 µM (inactive)	84.5 µM (inactive)	82.8 µM (inactive)	47.9 µM (inactive)	84.5 µM (inactive)	> 100 µM (inactive)	85.7 µM (inactive)	85.7 µM (inactive)	> 100	> 100 µM (inactive)	> 100 µM (inactive)	22.5 µM (inactive)	22 µM (inactive)	–	> 100 µM (inactive)	29.3 µM (inactive)	29.1 µM (inactive)	> 100 µM (inactive)	> 100 µM (inactive)
CCn1c(=O)c2nc(SC)sc2n(-c2ccc(C)cc2)c1=O	6.68 µM (inactive)	> 100 µM (inactive)	0.401 µM (active)	> 100 µM (inactive)	> 100 µM (inactive)	> 100 µM (inactive)	> 100 µM (inactive)	> 100 µM (inactive)	> 100 µM (inactive)	> 100	> 100 µM (inactive)	> 100 µM (inactive)	> 100 µM (inactive)	> 100 µM (inactive)	–	> 100 µM (inactive)	> 100 µM (inactive)	> 100 µM (inactive)	> 100 µM (inactive)	> 100 µM (inactive)
COc1ccc(/C=C2\CCC(C)C3=C2N=c2s/c(=C/c4cccc(Br)c4)c(=O)n2C3c2ccc(OC)c(OC)c2)cc1OC (configuration not stated)	> 100 µM (inactive)	> 100 µM (inactive)	> 100 µM (inactive)	> 100 µM (inactive)	–	> 100 µM (inactive)	–	–	–	> 100	> 100 µM (inactive)	> 100 µM (inactive)	> 100 µM (inactive)	> 100 µM (inactive)	> 100 µM (inactive)	> 100 µM (inactive)	> 100 µM (inactive)	> 100 µM (inactive)	> 100 µM (inactive)	> 100 µM (inactive)
O=[N+]([O-])c1cc(Cl)ccc1S(=O)(=O)c1cc(Cl)cc2c1NCCC2	53 µM (inactive)	69.2 µM (inactive)	> 100 µM (inactive)	–	99.8 µM (inactive)	58.5 µM (inactive)	62.7 µM (inactive)	–	36.7 µM (inactive)	60.7	> 100 µM (inactive)	> 100 µM (inactive)	98.4 µM (inactive)	24.5 µM (inactive)	29.5 µM (inactive)	> 100 µM (inactive)	26.4 µM (inactive)	54.6 µM (inactive)	> 100 µM (inactive)	39.3 µM (inactive)
CC(O)c1nc(C#N)c(N)o1 (configuration not stated)	> 100 µM (inactive)	> 100 µM (inactive)	> 100 µM (inactive)	> 100 µM (inactive)	> 100 µM (inactive)	> 100 µM (inactive)	> 100 µM (inactive)	> 100 µM (inactive)	> 100 µM (inactive)	–	> 100 µM (inactive)	> 100 µM (inactive)	> 100 µM (inactive)	> 100 µM (inactive)	> 100 µM (inactive)	> 100 µM (inactive)	> 100 µM (inactive)	> 100 µM (inactive)	> 100 µM (inactive)	> 100 µM (inactive)
NC(=O)C/C=C/CC(N)=O	> 100 µM (inactive)	> 100 µM (inactive)	> 100 µM (inactive)	> 100 µM (inactive)	> 100 µM (inactive)	> 100 µM (inactive)	> 100 µM (inactive)	> 100 µM (inactive)	> 100 µM (inactive)	> 100	> 100 µM (inactive)	> 100 µM (inactive)	> 100 µM (inactive)	–	> 100 µM (inactive)	> 100 µM (inactive)	> 100 µM (inactive)	> 100 µM (inactive)	> 100 µM (inactive)	> 100 µM (inactive)
C[C@]12CC(c3ccccc3O1)C(C#N)C(=O)N2 (some centres not stated)	> 100 µM (inactive)	> 100 µM (inactive)	> 100 µM (inactive)	> 100 µM (inactive)	> 100 µM (inactive)	> 100 µM (inactive)	> 100 µM (inactive)	> 100 µM (inactive)	–	> 100	> 100 µM (inactive)	> 100 µM (inactive)	> 100 µM (inactive)	> 100 µM (inactive)	> 100 µM (inactive)	> 100 µM (inactive)	> 100 µM (inactive)	> 100 µM (inactive)	> 100 µM (inactive)	> 100 µM (inactive)
COc1cc2nc3n(c(=O)c2cc1OC)CCCCC3	> 100 µM (inactive)	> 100 µM (inactive)	> 100 µM (inactive)	> 100 µM (inactive)	> 100 µM (inactive)	> 100 µM (inactive)	> 100 µM (inactive)	> 100 µM (inactive)	> 100 µM (inactive)	> 100	–	> 100 µM (inactive)	> 100 µM (inactive)	> 100 µM (inactive)	> 100 µM (inactive)	> 100 µM (inactive)	94.2 µM (inactive)	> 100 µM (inactive)	> 100 µM (inactive)	> 100 µM (inactive)
CCCCCCCCCC[C@H](O)[C@H](O)CC[C@@H](O)[C@H]1CC[C@@H]([C@H]2CC[C@H](CCCCCCC[C@@H](O)CC3=C[C@H](C)OC3=O)O2)O1	3.34 µM (inactive)	2.42 µM (inactive)	6.3 µM (inactive)	41.5 µM (inactive)	1.71 µM (inactive)	1.33 µM (inactive)	1.42 µM (inactive)	0.00746 µM (active)	1.22 µM (inactive)	3.87	1.84 µM (inactive)	4.65 µM (inactive)	1.9 µM (inactive)	1.7 µM (inactive)	1.67 µM (inactive)	–	2.52 µM (inactive)	6.32 µM (inactive)	6.28 µM (inactive)	2.82 µM (inactive)
